Reference: publication PMC6199744, “Development of Chemical Proteomics for the Folateome and Analysis of the Kinetoplastid Folateome” (ACS Infectious Diseases, 2018)
Read-outs that look alike come from different tables or passages of the source.

System: T. brucei lysate proteins
Assay type: binding, Trypanosoma brucei
Settings: vehicle control = 1

**Q.** With `NCCOCCOCC(=O)Nc1nc2ncc(CNc3ccc(C(=O)NC(CCC(=O)O)C(=O)O)cc3)nc2c(=O)[nH]1` (stereo not shown) [compound 6] as the compound, how does the fold change (protein TB427.06.2550 RNA-BINDING PROTEIN, PUTATIVE) read?
**A.** 0.94

**Q.** And the fold change (protein TB427.06.3500 ENDOSOMAL T[…] RME-8, PUTATIVE)?
**A.** 0.83

**Q.** What about the fold change (protein TB427.06.3630 SPHINGOSINE 1-PHOSPHATE LYASE, PUTATIVE) of the same compound?
**A.** 0.95

**Q.** And the fold change (protein TB427.06.3650 ADP-RI[…], PUTATIVE)?
**A.** 0.98

**Q.** What about the fold change (protein TB427.06.3670 PAR[…] COMPONENT, PUTATIVE) of the same compound?
**A.** 0.88

**Q.** What about the fold change (protein TB427.06.4890 S-ADENOSYL[…], PUTATIVE) of the same compound?
**A.** 1.19

**Q.** What about the fold change (protein TB427.06.700 ALANYL-TRNA SYNTHETASE, PUTATIVE) of the same compound?
**A.** 0.97

**Q.** And the “fold change vs vehicle control” value (protein TB427.07.1300 PROTEIN DISULFIDE ISOMERASE, PUTATIVE)?
**A.** 1.37

**Q.** And the fold change (protein TB427.07.2340 40S RIBOSOMAL PROTEIN S15, PUTATIVE)?
**A.** 0.89

**Q.** And the fold change (protein TB427.07.2770 HY[…], CONSERVED)?
**A.** 0.86

**Q.** What about the fold change (protein TB427.07.3530 HY[…], CONSERVED) of the same compound?
**A.** 0.98

**Q.** What about the fold change (protein TB427.07.3980 IMMU[…], PUTATIVE) of the same compound?
**A.** 0.79

**Q.** What about the “fold change vs vehicle control” value (protein TB427.07.4170 FATTY ACID ELONGASE, PUTATIVE) of the same compound?
**A.** 0.97

**Q.** And the fold change (protein TB427.07.4180 FATTY ACID ELONGASE, PUTATIVE)?
**A.** 0.95

**Q.** What about the fold change (protein TB427.07.4970 GLUTAMINE SYNTHETASE, PUTATIVE) of the same compound?
**A.** 0.85

**Q.** What about the fold change (protein TB427.07.7070 HY[…], CONSERVED) of the same compound?
**A.** 0.92

**Q.** What about the “fold change vs vehicle control” value (protein TB427.07.7500 THYMINE-7-HYDROXYLASE, PUTATIVE) of the same compound?
**A.** 0.35

**Q.** What about the fold change (protein TB427.08.2060 HY[…], CONSERVED) of the same compound?
**A.** 0.87

**Q.** What about the fold change (protein TB427.08.2080 HY[…], CONSERVED) of the same compound?
**A.** 1.19

**Q.** And the fold change (protein TB427.08.3490 HY[…], CONSERVED)?
**A.** 0.98

**Q.** What about the fold change (protein TB427.08.3530 GLYCEROL-3-PHOSPHATE DEH[…]+], GLYCOSOMAL) of the same compound?
**A.** 1

**Q.** What about the “fold change vs vehicle control” value (protein TB427.08.3660 PROTEIN TRANSPORT PROTEIN SEC23) of the same compound?
**A.** 0.99

**Q.** What about the “fold change vs vehicle control” value (protein TB427.08.3750 NUCLEOLAR PROTEIN, PUTATIVE) of the same compound?
**A.** 0.96

**Q.** And the fold change (protein TB427.08.3870 HY[…], CONSERVED)?
**A.** 0.99

**Q.** And the fold change (protein TB427.08.4210 HY[…], CONSERVED)?
**A.** 1.19

**Q.** And the fold change (protein TB427.08.650 CATION-TR[…], PUTATIVE)?
**A.** 0.94

**Q.** And the fold change (protein TB427.10.10020 HY[…], CONSERVED)?
**A.** 0.97

**Q.** What about the fold change (protein TB427.10.10350 PROTEIN KINASE, PUTATIVE) of the same compound?
**A.** 0.86

**Q.** What about the fold change (protein TB427.10.10360 MICROTUBULE-[…], PUTATIVE) of the same compound?
**A.** 0.85

**Q.** And the “fold change vs vehicle control” value (protein TB427.10.10610 PROTEIN TYROSINE PHOSPHATASE, PUTATIVE)?
**A.** 1.7

**Q.** And the “fold change vs vehicle control” value (protein TB427.10.1100 60S RIBOSOMAL PROTEIN L9, PUTATIVE)?
**A.** 1.14

**Q.** And the “fold change vs vehicle control” value (protein TB427.10.12510 P-TYPE H+-ATPASE, PUTATIVE)?
**A.** 1.28

**Q.** And the fold change (protein TB427.10.12710 HEAT SHOCK PROTEIN, PUTATIVE)?
**A.** 1.53

**Q.** And the “fold change vs vehicle control” value (protein TB427.10.14470 INTR[…] PROTEIN IFT140, PUTATIVE)?
**A.** 1.46

**Q.** What about the fold change (protein TB427.10.1450 HY[…], CONSERVED) of the same compound?
**A.** 0.97

**Q.** What about the “fold change vs vehicle control” value (protein TB427.10.14550 ATP-DEPENDENT DEAD/H RNA HELICASE, PUTATIVE) of the same compound?
**A.** 1.1

**Q.** And the “fold change vs vehicle control” value (protein TB427.10.14930 HY[…], CONSERVED)?
**A.** 0.95

**Q.** And the “fold change vs vehicle control” value (protein TB427.10.14950 RNA BINDING PROTEIN, PUTATIVE)?
**A.** 0.98

**Q.** What about the fold change (protein TB427.10.14990 INTR[…] PROTEIN IFT80/CHE2, PUTATIVE) of the same compound?
**A.** 1.1

**Q.** And the fold change (protein TB427.10.15720 […]-ATP-ASE SUBUNIT 9)?
**A.** 0.84

**Q.** What about the fold change (protein TB427.10.2020 HEXOKINASE) of the same compound?
**A.** 1.29

**Q.** What about the fold change (protein TB427.10.2290 CHAPERONE PROTEIN DNAJ, PUTATIVE) of the same compound?
**A.** 0.86

**Q.** And the fold change (protein TB427.10.2440 METACASPASE MCA4)?
**A.** 0.89

**Q.** What about the “fold change vs vehicle control” value (protein TB427.10.3470 HY[…], CONSERVED) of the same compound?
**A.** 1.1

**Q.** What about the “fold change vs vehicle control” value (protein TB427.10.5810 HY[…], CONSERVED) of the same compound?
**A.** 1.81

**Q.** What about the fold change (protein TB427.10.6150 […]/BEIGE PROTEIN, PUTATIVE) of the same compound?
**A.** 0.67

**Q.** And the fold change (protein TB427.10.6310 MAJOR VAULT PROTEIN, PUTATIVE)?
**A.** 0.93

**Q.** And the fold change (protein TB427.10.730 ATP SYNTHASE, PUTATIVE)?
**A.** 0.83

**Q.** And the “fold change vs vehicle control” value (protein TB427.10.7620 MIT[…]-DEPENDENT ZINC METALLOPEPTIDASE, PUTATIVE)?
**A.** 0.98

**Q.** What about the “fold change vs vehicle control” value (protein TB427.10.8230 PROTEIN DISULFIDE ISOMERASE) of the same compound?
**A.** 1.84

**Q.** And the fold change (protein TB427.10.8910 HY[…], CONSERVED)?
**A.** 0.91

**Q.** And the “fold change vs vehicle control” value (protein TB927.10.13290 ETHANOLAMINE PHOSPHOTRANSFERASE (EPT))?
**A.** 1.14

**Q.** And the “fold change vs vehicle control” value (protein TB927.10.13780 GLYCOGEN SYNTHASE KINASE 3)?
**A.** 0.99

**Q.** And the “fold change vs vehicle control” value (protein TB927.10.14980 INTR[…] PROTEIN IFT52, PUTATIVE)?
**A.** 1.23

**Q.** And the “fold change vs vehicle control” value (protein TB927.10.2640 INTR[…] PROTEIN IFT81, PUTATIVE)?
**A.** 0.98

**Q.** And the “fold change vs vehicle control” value (protein TB927.10.2890 ENOLASE)?
**A.** 1.58

**Q.** What about the fold change (protein TB927.10.2980 […]-ATPASE SUBUNIT 11) of the same compound?
**A.** 0.89

**Q.** And the fold change (protein TB927.10.3990 DHH1)?
**A.** 1.1

**Q.** And the fold change (protein TB927.10.4180 TFIIF-[…] PHOSPHATASE, PUTATIVE)?
**A.** 1

**Q.** What about the “fold change vs vehicle control” value (protein TB927.10.4570 […] 2) of the same compound?
**A.** 1.74

**Q.** What about the fold change (protein TB927.10.5370 40S RIBOSOMAL PROTEIN S10, PUTATIVE) of the same compound?
**A.** 0.89

**Q.** What about the fold change (protein TB927.10.5500 HY[…], CONSERVED) of the same compound?
**A.** 0.92

**Q.** And the “fold change vs vehicle control” value (protein TB927.10.560 40S RIBOSOMAL PROTEINS S11, PUTATIVE)?
**A.** 1.25

**Q.** And the fold change (protein TB927.10.6050 CLATHRIN HEAVY CHAIN)?
**A.** 0.85

**Q.** And the fold change (protein TB927.10.7090 A[…])?
**A.** 1.37

**Q.** And the “fold change vs vehicle control” value (protein TB927.10.8940 HY[…], CONSERVED)?
**A.** 0.88

**Q.** What about the fold change (protein TB927.2.2770 HY[…] TB927 2 2770) of the same compound?
**A.** 1.1

**Q.** What about the fold change (protein TB927.2.3800 MRNA […], PUTATIVE) of the same compound?
**A.** 0.69

**Q.** What about the fold change (protein TB927.3.1240 PROTEIN PHOSPHATASE 2A, PUTATIVE) of the same compound?
**A.** 0.98

**Q.** And the “fold change vs vehicle control” value (protein TB927.3.2960 INOSINE-ADENOSINE-GUANOSINE-[…])?
**A.** 1.36

**Q.** And the fold change (protein TB927.3.3270 ATP-DEPENDENT PHOSPHOFRUCTOKINASE)?
**A.** 0.93

**Q.** And the “fold change vs vehicle control” value (protein TB927.3.3450 ADP-RI[…]-LIKE PROTEIN 3A, PUTATIVE)?
**A.** 2.16

**Q.** And the “fold change vs vehicle control” value (protein TB927.3.3490 HIGH MOBILITY GROUP PROTEIN, PUTATIVE)?
**A.** 1.55

**Q.** And the fold change (protein TB927.3.3780 TRYPAREDOXIN)?
**A.** 0.94

**Q.** And the “fold change vs vehicle control” value (protein TB927.3.5120 HY[…], CONSERVED (Ankyrin repeats (3 copies), putative))?
**A.** 1.38

**Q.** What about the “fold change vs vehicle control” value (protein TB927.3.740 HY[…], CONSERVED) of the same compound?
**A.** 0.97

**Q.** What about the “fold change vs vehicle control” value (protein TB927.4.2740 HY[…], CONSERVED (p25-alpha, putative)) of the same compound?
**A.** 1.55

**Q.** What about the fold change (protein TB927.4.3590 T[…] 1-BETA, PUTATIVE) of the same compound?
**A.** 1.46

**Q.** And the “fold change vs vehicle control” value (protein TB927.4.3820 HY[…], CONSERVED)?
**A.** 0.99

**Q.** What about the fold change (protein TB927.4.5310 SERINE/THREONINE-PROTEIN KINASE A, PUTATIVE) of the same compound?
**A.** 0.95

**Q.** What about the fold change (protein TB927.5.1630 HY[…], CONSERVED) of the same compound?
**A.** 0.86

**Q.** And the fold change (protein TB927.5.3220 SIGNAL PEPTIDASE TYPE I, PUTATIVE)?
**A.** 0.87

**Q.** What about the “fold change vs vehicle control” value (protein TB927.5.4440 DYNEIN LIGHT CHAIN, PUTATIVE) of the same compound?
**A.** 0.98

**Q.** What about the fold change (protein TB927.6.2200 HY[…], CONSERVED) of the same compound?
**A.** 1

**Q.** And the “fold change vs vehicle control” value (protein TB927.7.1750 60S RIBOSOMAL PROTEIN L7, PUTATIVE)?
**A.** 1.31

**Q.** What about the fold change (protein TB927.7.2140 HY[…]) of the same compound?
**A.** 0.83

**Q.** What about the “fold change vs vehicle control” value (protein TB927.7.4470 HY[…], CONSERVED) of the same compound?
**A.** 1.18

**Q.** And the “fold change vs vehicle control” value (protein TB927.7.7430 ATP SYNTHASE ALPHA CHAIN, MIT[…])?
**A.** 1.18

**Q.** What about the fold change (protein TB927.8.1510 ATP-DEPENDENT DEAD/H RNA HELICASE, PUTATIVE) of the same compound?
**A.** 0.96

**Q.** And the fold change (protein TB927.8.1990 PEROXIDOXIN)?
**A.** 0.97

**Q.** And the fold change (protein TB927.8.4770 SMALL GTP-BINDING PROTEIN RAB18)?
**A.** 0.96
